Measurements taken from patent US11938136B2, “Compositions for treating spinal muscular atrophy” (Hoffmann-La Roche Inc., priority 2015, dated 2024).
Like-named read-outs stand apart in the source and are kept apart here.

Key:
human SMN2 pre-mRNA = experiment: SMN2 splicing in SMA Type 1 fibroblasts (RT-PCR); format: cell-based; details: Fibroblast, 24 hours
Description: (§1) (A) SMN2 splicing in SMA Type 1 fibroblasts. (B) SMN protein in SMA Type 1 fibroblasts. (C) SMN protein in SMA Type 1 motor neurons. (D) SMN1 and SMN2 splicing in whole blood derived from HV. Fibroblasts from SMA Type 1 patients were cultured for 24 hours (A) or 48 hours (B); motor neurons from SMA Type 1 patient iPSCs (induced Pluripotent Stem Cells) were cultured for 72 hours (C) and whole blood cells from healthy volunteers (HV) for 4 hours (D) in the presence of the compound of Example 20. SMN splicing was assessed by RT-PCR, and SMN protein levels were assessed by homogenous time-resolved fluorescence (HTRF) in fibroblast lysates, and by immunostaining for SMN in motor neurons. Data represent means standard error (SEM) of 3 evaluations per data point and are expressed as fold change vs. untreated controls.
The compound of Example 20 is an orally available small molecule SMN2 splicing modifier for the treatment of SMA. It has been found, that the compound of Example 20 effectively corrects the dysfunctional splicing of the human SMN2 pre-mRNA in cultured patient cells (SMA Type 1 fibroblasts) by shifting the balance of the alternative splicing reaction completely towards the inclusion of SMN2 exon 7 and the production of the full-length mRNA (FIG. 1A: EC50 29±8 nM for FL, 12±1 nM for Δ7 mRNA). […] EC1.5× was 4.7±0.7 nM and the maximum induction was 20-fold.

SMN protein = SMN protein in spinal motor neurons derived from SMA patient iPSCs (immunostaining); format: cell-based, human
Description: as §1

SMN2 splicing = experiment: Ex vivo whole blood assay, SMN2 splicing; format: cell-based, human; details: whole blood cells from healthy volunteers, 4 hours
Description: as §1, with “controls. To further assess SMN2 splicing as a potential blood biomarker, an ex vivo assay was developed using whole blood cells from healthy volunteers in which SMN1 and SMN2 splicing was assessed after 4 hours treatment with the compound of Example 20 (at this time point, maximal splicing changes were achieved).” for “controls.”

SMNΔ7 mice = experiment: Survival and body weight of SMNΔ7 mice; format: in vivo, mouse
Description: FIG. 3. in vivo Effects of treatment SMNΔ7 mice with 7-(4,7-diazaspiro[2.5]octan-7-yl)-2-(2,8-dimethylimidazo[1,2-b]pyridazin-6-yl)pyrido[1,2-a]pyrimidin-4-one (Example 20). SMNΔ7 mice were treated with the compound of Example 20 from P3 onwards and animal survival (A) and body weight (B) were assessed daily until P100. Data represent means SEM of 10-12 mice per group. HET=heterozygous littermates.
Functional benefits were assessed in the severe and mild SMA mouse models. SMNΔ7 mice were treated from P3 to P23 once daily by IP injection of vehicle or the compound of Example 20, and from P24 onwards once daily by oral gavage. During the treatment period, body weight and animal survival were monitored. Over the 100-day observation period, only two heterozygous littermates died. In contrast, all vehicle-treated mice died before P21 with a median survival time (MST) of 10.5 days.

FoxM1 = experiment: Alternative splicing of FoxM1 in SMA Type I patient fibroblasts (RT-qPCR); format: cell-based; details: Homo sapiens, Fibroblast, 24 hours
Description: FIG. 5. Alternative Splicing of FoxM1 in vitro SMA Type I patient fibroblasts were treated with the compound of Example 20 for 24 hours, and FoxM1 full-length (FL) and exon 9-lacking (Δ9) mRNAs were analyzed by RT-qPCR. Data represent means SEM of 6 repetitions and are expressed as fold change vs. untreated controls.
FoxM1, a gene alternatively spliced by other splicing modifier compounds, encodes a cell cycle regulator. […] 2007 February; 3(1):1-3. Laoukili et al, Biochim Biophys Acta. 2007 January; 1775(1):92-102]. […] Increased expression of the FoxM1A isoform, together with decreased expression of FoxM1 isoforms lacking exon 9, has the capability to disturb and inhibit cell cycle progression if splicing changes are at a level that is biologically significant. Thus, the compound of Example 20 acts in a similar way on the SMN2 and FoxM1 splicing machinery, but with opposing outcomes with regard to protein function and at varying degrees. The EC50 for MADD, a gene also identified as affected by splicing modifiers including the compound of Example 20 at high concentrations and known to be involved in apoptotic processes, is not known.

## Cc1cn2nc(-c3cc(=O)n4cc(N5CCNC6(CC6)C5)ccc4n3)cc(C)c2n1 [Example 20, 7-(4,7-diazaspiro[2.5]octan-7-yl)-2-(2,8-dimethylimidazo[1,2-b]pyridazin-6-yl)pyrido[1,2-a]pyrimidin-4-one]
Human SMN2 pre-mRNA; read-out: EC50 for FL SMN2 mRNA
  EC50: 29 ± 8 nM
Human SMN2 pre-mRNA; read-out: EC50 for Δ7 SMN2 mRNA
  EC50: 12 ± 1 nM
SMN protein; motor neurons from SMA patient iPSCs
  maximal increase in SMN protein above untreated cells: 60-80%
SMN protein; spinal motor neurons from SMA patient iPSCs, 72 hours
  EC50: 182 ± 114 nM
SMN2 splicing
  concentration at which effects on splicing were evident: above 100 nM
  effect on SMN2 splicing: dose-dependently altered towards inclusion of exon 7
SMNΔ7 mice; high dose
  recovery in body weight gain as compared to heterozygous littermates: 85%
SMNΔ7 mice; high dose: 3 mg/kg IP through P23 and 10 mg/kg PO thereafter
  animals surviving up to P100: 73%
SMNΔ7 mice; low dose
  correction of impaired body weight increase: only mildly corrected
SMNΔ7 mice; mid dose
  recovery in body weight gain as compared to heterozygous littermates: 71%
SMNΔ7 mice; mid dose: 0.3 mg/kg IP through P23 and 1 mg/kg PO thereafter
  animals surviving up to P100: 80%
SMNΔ7 mice; mid/high dose
  recovery in body weight gain as compared to heterozygous littermates: 82%
SMNΔ7 mice; mid/high dose: 1 mg/kg IP through P23 and 3 mg/kg PO thereafter
  animals surviving up to P100: 82%
FoxM1; read-out: EC50 for FoxM1 FL mRNA
  EC50: 67 ± 32 nM
FoxM1; read-out: EC50 for FoxM1 Δ9 mRNA
  EC50: 139 ± 43 nM
